The results in this text go back to patent US11826351B2, “Compounds useful as kinase inhibitors” (Loxo Oncology, Inc., priority 2015, dated 2023).

The structures appear in SMILES notation. Where two headings read alike, the source gives them in different places. Some results are limits rather than exact numbers.

Assay [1] deals with T1, Recombinant BTK^C481S kinase (Homo sapiens, UniProt Q06187, C481S).
T1 construct: purchased SignalChem
In words: BTK C481S binding affinity (LanthaScreen TR-FRET). The settings on record: Kinase Tracer 236, 5 h incubation. The method, then: (§1) BTK^C481S binding affinity of each compound tested was determined using a time-resolved fluorescence resonance energy transfer (TR-FRET) methodology. 5 nM Recombinant BTK^WT kinase, varying concentrations of inhibitor, 2 nM LanthaScreen™ Eu anti-His Antibody and 30 nM Kinase Tracer 236 was incubated in 1× LanthaScreen™ Kinase Buffer A for 5 h. Recombinant BTK^C481S kinase was purchased from SignalChem and all LanthaScreen™ components were purchased from Invitrogen. Measurements were performed in a reaction volume of 30 μL using half-area 96-well assay plates. The TR-FRET signal was read on a plate reader with an excitation wavelength of 340 nm and detection wavelengths of 615 and 665 nm. Binding affinity was determined for each compound by measuring TR-FRET signal at various concentrations of compound and plotting the relative fluorescence units against the inhibitor concentration to estimate the IC50 from log[Inhibitor] vs response using the Variable Slope model in Graphpad prism from Graphpad software (San Diego, Calif.).
For orientation: TR-FRET usually uses a lanthanide donor and a delayed reading to cut background.

The target in assay [2] is T2, Recombinant BTK^WT kinase (Homo sapiens, UniProt Q06187).
T2 construct: purchased Invitrogen
In words: BTK WT binding affinity (LanthaScreen TR-FRET). To be noted: Kinase Tracer 236, 5 h incubation. As to the method:
as §1, with “BTK^WT binding” for “BTK^C481S binding”, “methodology. 2.5” for “methodology. 5”, “and 15” for “and 30”, “Recombinant BTK” for “Recombinant BTK^C481S”, “kinase” for “kinase was purchased from SignalChem”

Assay [3] deals with OCI-Ly10 human DLBCL cells. In words: OCI-Ly10 anti-proliferative activity (Resazurin). To be noted: OCI-Ly10 cells, 72 h compound treatment, Resazurin, read-out: Proliferation Assay OCI-Ly10-20% FBS. It counts as cell-based. As to the method: Compounds were assayed for effects on the growth of OCI-Ly10 human DLBCL cells that are dependent on NFκB signalling. […] Cells were then plated at 7.5×10^3 cells per well in 96-well plates in varying concentrations of compound and incubated for 72 h at 37° C. An additional plate of cells to be used as the Day 0 read was seeded without compound addition, Resazurin was added to each well, incubated for 5 h and the fluorescence measured at 590 nm. After 72 h of compound treatment, Resazurin was added to each well of the compound treated plates, incubated for 5 h and the fluorescence measured at 590 nm. The IC50 was then calculated by subtracting the average Day 0 value from each well value from the treated plates, each treatment was then calculated as a percentage of the DMSO control and the percentages plotted against the inhibitor concentration to estimate the IC50 from log[Inhibitor] vs response using the Variable Slope model in Graphpad prism from Graphpad software (San Diego, Calif.).
On the technique in general: The colour change of resazurin is a common sign of viable cells or microbes.

The target in assay [4] is T3, Recombinant EGFR (Homo sapiens, UniProt P00533).
T3 construct: purchased Invitrogen
In words: EGFR binding affinity (LanthaScreen TR-FRET). The settings on record: Kinase Tracer 199, 5 h incubation. The method, then:
EGFR binding affinity was determined using a time-resolved fluorescence resonance energy transfer (TR-FRET) methodology. […] Recombinant EGFR and all LanthaScreen™ components were purchased from Invitrogen. Measurements were performed in a reaction volume of 30 μL using half-area 96-well assay plates. […] Binding affinity was determined for each compound by measuring TR-FRET signal at various concentrations of compound and plotting the relative fluorescence units against the inhibitor concentration to estimate the IC50 from log[Inhibitor] vs response using the Variable Slope model in Graphpad prism from Graphpad software (San Diego, Calif.).

T3 sequence (P00533 25-1210): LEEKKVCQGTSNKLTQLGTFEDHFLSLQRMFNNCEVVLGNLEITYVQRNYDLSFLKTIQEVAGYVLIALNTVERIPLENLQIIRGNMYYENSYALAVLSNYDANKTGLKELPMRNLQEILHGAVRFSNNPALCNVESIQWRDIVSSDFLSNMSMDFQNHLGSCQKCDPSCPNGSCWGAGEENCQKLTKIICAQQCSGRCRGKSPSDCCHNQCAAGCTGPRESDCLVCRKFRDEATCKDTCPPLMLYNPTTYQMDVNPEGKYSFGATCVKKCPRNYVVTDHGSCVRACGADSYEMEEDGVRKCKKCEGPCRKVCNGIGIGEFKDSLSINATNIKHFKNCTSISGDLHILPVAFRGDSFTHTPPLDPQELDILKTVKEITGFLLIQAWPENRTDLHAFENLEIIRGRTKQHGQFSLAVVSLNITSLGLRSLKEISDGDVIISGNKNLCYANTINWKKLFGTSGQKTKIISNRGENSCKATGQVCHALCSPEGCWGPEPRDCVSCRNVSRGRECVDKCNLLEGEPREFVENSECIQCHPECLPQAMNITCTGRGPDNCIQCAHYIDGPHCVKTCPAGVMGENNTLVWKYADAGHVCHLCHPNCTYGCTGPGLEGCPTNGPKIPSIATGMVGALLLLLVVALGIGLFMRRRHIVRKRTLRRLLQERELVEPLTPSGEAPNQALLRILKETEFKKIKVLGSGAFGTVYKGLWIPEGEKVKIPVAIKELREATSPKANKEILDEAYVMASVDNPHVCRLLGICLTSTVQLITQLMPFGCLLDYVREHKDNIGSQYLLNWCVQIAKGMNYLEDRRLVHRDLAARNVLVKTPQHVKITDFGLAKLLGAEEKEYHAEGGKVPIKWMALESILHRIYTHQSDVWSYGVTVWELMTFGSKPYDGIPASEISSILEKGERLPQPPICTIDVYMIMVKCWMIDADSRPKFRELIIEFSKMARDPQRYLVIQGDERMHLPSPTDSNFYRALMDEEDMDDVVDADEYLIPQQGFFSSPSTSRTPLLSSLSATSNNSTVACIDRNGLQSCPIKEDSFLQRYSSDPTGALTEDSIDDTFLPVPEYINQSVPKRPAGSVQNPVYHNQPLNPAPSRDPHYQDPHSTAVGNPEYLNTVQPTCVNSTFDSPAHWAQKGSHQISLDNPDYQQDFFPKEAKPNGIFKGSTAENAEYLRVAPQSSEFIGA
T2 sequence (Q06187 whole entry): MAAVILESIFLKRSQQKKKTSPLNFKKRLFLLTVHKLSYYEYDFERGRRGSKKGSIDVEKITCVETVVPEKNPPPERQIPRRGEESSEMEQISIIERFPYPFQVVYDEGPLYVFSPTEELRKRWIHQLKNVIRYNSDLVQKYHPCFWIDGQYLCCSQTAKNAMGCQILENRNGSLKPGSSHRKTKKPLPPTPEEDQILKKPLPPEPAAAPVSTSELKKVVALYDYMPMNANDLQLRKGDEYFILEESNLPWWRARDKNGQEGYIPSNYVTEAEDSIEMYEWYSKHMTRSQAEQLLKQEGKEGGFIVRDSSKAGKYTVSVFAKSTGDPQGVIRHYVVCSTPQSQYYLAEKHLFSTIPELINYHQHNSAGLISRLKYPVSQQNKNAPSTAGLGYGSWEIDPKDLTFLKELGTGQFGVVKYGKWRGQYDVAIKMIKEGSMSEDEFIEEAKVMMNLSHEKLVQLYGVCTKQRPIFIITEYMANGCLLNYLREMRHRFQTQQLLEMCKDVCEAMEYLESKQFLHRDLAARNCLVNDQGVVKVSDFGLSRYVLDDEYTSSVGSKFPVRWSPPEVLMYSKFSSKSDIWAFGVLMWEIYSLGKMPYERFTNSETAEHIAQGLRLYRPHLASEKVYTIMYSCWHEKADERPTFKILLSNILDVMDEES
T1 sequence (Q06187 whole entry C481S): as the sequence (Q06187 whole entry) above, with C481S counted along it

For `COc1ccc(F)cc1C(=O)NCc1ccc(-c2nn(C(C)C3CCOCC3)c(N)c2C(N)=O)cc1` (stereo not drawn) [Example 161, 5-amino-3-[4-[[(5-fluoro-2-methoxy-benzoyl)amino]methyl]phenyl]-1-(1-tetrahydropyran-4-ylethyl)pyrazole-4-carboxamide], the IC50 in assay [1] is less than 10 nM; in assay [2], 10 to 100 nM; in assay [3] (Homo sapiens, OCI-Ly10, 72 h), 100 to 1000 nM; in assay [4] it was more than 10000 nM.
Consider `COc1ccccc1C(=O)NCc1ccc(-c2nn(C3CCCC3)c(NC(C)C)c2C(N)=O)cc1` [Example 72, 1-cyclopentyl-5-(isopropylamino)-3-[4-[[(2-methoxybenzoyl)amino]methyl]phenyl]pyrazole-4-carboxamide], for which the IC50 is less than 10 nM in assay [1]; 10 to 100 nM in assay [2]; 100 to 1000 nM in assay [3] (Homo sapiens, OCI-Ly10, 72 h); 1000 to 10000 nM in assay [4].
For `COc1ccccc1C(=O)NCc1ccc(-c2nn(CC(F)(F)F)c(N)c2C(N)=O)c(F)c1` [Example 124, 5-amino-3-[2-fluoro-4-[[(2-methoxybenzoyl)amino]methyl]phenyl]-1-(2,2,2-trifluoroethyl)pyrazole-4-carboxamide], the IC50 in assay [1] lay in the range of 10 to 100 nM; in assay [2], 10 to 100 nM; in assay [3] (Homo sapiens, OCI-Ly10, 72 h), 100 to 1000 nM; in assay [4], 1000 to 10000 nM.
Regarding `COc1ccccc1C(=O)NCc1ccc(-c2nn(CCN3CCOCC3)c(N)c2C(N)=O)cc1` [Example 9, 5-Amino-3-[4-[[(2-methoxybenzoyl)amino]methyl]phenyl]-1-(2-morpholinoethyl)pyrazole-4-carboxamide], the IC50 in assay [1] lay in the range of 10 to 100 nM; in assay [2], 10 to 100 nM; in assay [3] (Homo sapiens, OCI-Ly10, 72 h), 100 to 1000 nM; in assay [4] it was 1000 to 10000 nM.
As for `COc1ccccc1C(=O)NCc1ccc(-c2nn(CCc3nnn[nH]3)c(N)c2C(N)=O)cc1` [Example 25, 5-Amino-3-[4-[[(2-methoxybenzoyl)amino]methyl]phenyl]-1-[2-(1H-tetrazol-5-yl)ethyl]pyrazole-4-carboxamide], the IC50 in assay [1] is less than 10 nM; in assay [2], 10 to 100 nM; in assay [3] (Homo sapiens, OCI-Ly10, 72 h), more than 10000 nM; in assay [4], 1000 to 10000 nM.
For `COc1ccc(F)cc1C(=O)NCc1ccc(-c2nn(C(c3ccccc3)C(F)(F)F)c(N)c2C(N)=O)cc1` (stereo not drawn) [Example 178, 5-Amino-3-[4-[[(5-fluoro-2-methoxy-benzoyl)amino]methyl]phenyl]-1-(2,2,2-trifluoro-1-phenyl-ethyl)pyrazole-4-carboxamide], the IC50 is less than 10 nM in assay [1]; 10 to 100 nM in assay [2]; 10 to 100 nM in assay [3] (Homo sapiens, OCI-Ly10, 72 h); 1000 to 10000 nM in assay [4].
In the case of `COc1ccccc1C(=O)NCc1ccc(-c2nn(C3CCOC3)c(N)c2C(N)=O)c(F)c1` (stereo not drawn) [Example 100, 5-amino-3-[2-fluoro-4-[[(2-methoxybenzoyl)amino]methyl]phenyl]-1-tetrahydrofuran-3-yl-pyrazole-4-carboxamide], the IC50 in assay [1] was less than 10 nM; in assay [2] it was 10 to 100 nM; in assay [3] (Homo sapiens, OCI-Ly10, 72 h) it was 100 to 1000 nM; in assay [4], more than 10000 nM.
Take `COc1ccc(F)cc1C(=O)NCc1ccc(-c2nn(C(C(C)C)C(F)(F)F)c(N)c2C(N)=O)cc1` (stereo not drawn) [Example 180, 5-amino-3-[4-[[(5-fluoro-2-methoxy-benzoyl)amino]methyl]phenyl]-1-[2-methyl-1-(trifluoromethyl)propyl]pyrazole-4-carboxamide]: the IC50 in assay [1] was less than 10 nM; in assay [2], less than 10 nM; in assay [3] (Homo sapiens, OCI-Ly10, 72 h), 10 to 100 nM; in assay [4], 1000 to 10000 nM.
On to `COc1ccccc1C(=O)NCc1ccc(-c2nn(C[C@H]3CCCNC3)c(N)c2C(N)=O)cc1` [Example 42, 5-amino-3-[4-[[(2-methoxybenzoyl)amino]methyl]phenyl]-1-[[(3S)-3-piperidyl]methyl]pyrazole-4-carboxamide], for which the IC50 in assay [2] and in assay [4] was more than 10000 nM throughout.
Turning to `COc1ccccc1C(=O)NCc1ccc(-c2nn(C3CCC(C)(O)CC3)c(N)c2C(N)=O)cc1` (single isomer, unassigned) [Example 27, 5-Amino-1-(4-hydroxy-4-methyl-cyclohexyl)-3-[4-[[(2-methoxybenzoyl)amino]methyl]phenyl]pyrazole-4-carboxamide], the values for the IC50 in assay [2], in assay [3] and in assay [4] were less than 10 nM, 10 to 100 nM and 100 to 1000 nM, respectively.
Take `COc1ccc(F)cc1C(=O)NCc1ccc(-c2nn(C(C3CC3)C(F)(F)F)c(N)c2C(N)=O)cc1` (stereo not drawn) [Example 188, 5-amino-1-(1-cyclopropyl-2,2,2-trifluoro-ethyl)-3-[4-[[(5-fluoro-2-methoxy-benzoyl)amino]methyl]phenyl]pyrazole-4-carboxamide]: the results for the IC50 in assay [1], in assay [2] and in assay [4] were less than 10 nM, less than 10 nM and 1000 to 10000 nM, respectively.
Regarding `COc1ccccc1C(=O)NCc1ccc(-c2nn(-c3nc(C)cs3)c(N)c2C(N)=O)cc1` [Example 67, 5-amino-3-[4-[[(2-methoxybenzoyl)amino]methyl]phenyl]-1-(4-methylthiazol-2-yl)pyrazole-4-carboxamide], in assay [2], the IC50 lay within 100 to 1000 nM.
In the case of `COc1ccccc1C(=O)NCc1ccc(-c2nn([C@@H]3CCC[C@H]3O)c(N)c2C(N)=O)cc1` (relative stereo) [Example 2, 5-Amino-1-[(1R*,2R*)-2-hydroxycyclopentyl]-3-[4-[[(2-methoxybenzoyl)amino]methyl]phenyl]pyrazole-4-carboxamide], the IC50 in assay [1] is less than 10 nM; in assay [2], less than 10 nM; in assay [3] (Homo sapiens, OCI-Ly10, 72 h), 100 to 1000 nM.
For `CNC(=O)c1c(-c2ccc(CNC(=O)c3ccccc3OC)cc2)nn(C2CCCC2)c1N` [Example 69, 5-amino-1-cyclopentyl-3-[4-[[(2-methoxybenzoyl)amino]methyl]phenyl]-N-methyl-pyrazole-4-carboxamide], in assay [2], the IC50 is more than 10000 nM.
Take `COc1ccccc1C(=O)NCc1ccc(-c2nn(C3CCCC3)c(Nc3ccccc3)c2C(N)=O)cc1` [Example 56, 5-anilino-1-cyclopentyl-3-[4-[[(2-methoxybenzoyl)amino]methyl]phenyl]pyrazole-4-carboxamide]: the IC50 is 100 to 1000 nM in assay [1]; 100 to 1000 nM in assay [2]; 1000 to 10000 nM in assay [3] (Homo sapiens, OCI-Ly10, 72 h).
Consider `COc1ccccc1C(=O)NCc1c(F)cc(-c2nn(C3CCOCC3)c(N)c2C(N)=O)cc1F` [Example 132, 5-amino-3-[3,5-difluoro-4-[[(2-methoxybenzoyl)amino]methyl]phenyl]-1-tetrahydropyran-4-yl-pyrazole-4-carboxamide], for which the IC50 was 10 to 100 nM in assay [1], 100 to 1000 nM in assay [2] and more than 10000 nM in assay [4].
For `COc1ccc(F)cc1C(=O)NCc1c(F)cc(-c2nn(C3CCOCC3)c(N)c2C(N)=O)cc1F` [Example 133, 5-amino-3-[3,5-difluoro-4-[[(5-fluoro-2-methoxy-benzoyl)amino]methyl]phenyl]-1-tetrahydropyran-4-yl-pyrazole-4-carboxamide] the same measures were 10 to 100 nM, 100 to 1000 nM and more than 10000 nM.
Regarding `COc1ccccc1C(=O)NC(CO)c1ccc(-c2nn(C3CCCC3)c(N)c2C(N)=O)cc1C` (stereo not drawn) [Example 185, 5-amino-1-cyclopentyl-3-[4-[2-hydroxy-1-[(2-methoxybenzoyl)amino]ethyl]-3-methyl-phenyl]pyrazole-4-carboxamide], the IC50 in assay [1], in assay [2] and in assay [4] was 1000 to 10000 nM each time.
